{
  "source": "paper PMC10539439",
  "about": "(Pharmacological Reports, 2023)",
  "key": {"TAAR1 [1]": {"biological_target": "T1, TAAR1 (Homo sapiens, UniProt Q96RJ0)", "T1 sequence (Q96RJ0 1-339)": "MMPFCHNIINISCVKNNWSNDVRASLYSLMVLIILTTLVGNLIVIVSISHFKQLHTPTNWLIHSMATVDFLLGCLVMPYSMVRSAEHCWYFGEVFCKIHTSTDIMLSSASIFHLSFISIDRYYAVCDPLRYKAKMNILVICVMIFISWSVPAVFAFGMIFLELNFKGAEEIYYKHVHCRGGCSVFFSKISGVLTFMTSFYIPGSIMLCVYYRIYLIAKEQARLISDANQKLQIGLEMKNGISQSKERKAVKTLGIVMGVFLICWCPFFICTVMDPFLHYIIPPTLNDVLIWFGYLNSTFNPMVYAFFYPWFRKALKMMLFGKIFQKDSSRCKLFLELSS", "test": "Intrinsic activity, Hit Hunter cAMP assay", "format": "cell-based", "experimental": "The intrinsic activity study at cells with overexpression of TAAR1 (Eurofins, cat. No. 95-0173C2) was carried out at Eurofins Discoveries (Fremont, USA) using the Hit Hunter cAMP method. This assay monitors the activation of a GPCR via Gi and Gs secondary messenger signaling in a homogenous, non-imaging assay format using a technology developed by DiscoverX called Enzyme Fragment Complementation (EFC) with β-galactosidase (β-Gal) as the functional reporter. The enzyme is split into two complementary portions: EA for Enzyme Acceptor and ED for Enzyme Donor. ED is fused to cAMP and in the assay competes with cAMP generated by cells for binding to a cAMP-specific antibody. Active β-Gal is formed by complementation of exogenous EA to any unbound EDcAMP.\ncAMP Hunter cell lines were expanded from freezer stocks according to standard procedures. Cells were seeded in a total volume of 20 µL into white-walled, 384-well microplates and incubated at 37 ℃ for the appropriate time prior to testing. For agonist determination, cells were incubated with a sample to induce a response. Media was aspirated from cells and replaced with 15 µL 2:1 HBSS/10 mM Hepes:cAMP XS + Ab reagent. Intermediate dilution of sample stocks was performed to generate 4X samples in assay buffer. 5 µL of 4 × sample was added to cells and incubated at 37 ℃ or room temperature for 30 or 60 min. Vehicle concentration was 1%. […] Microplates were read following signal generation with a PerkinElmer Envision instrument for chemiluminescent signal detection."}, "[2]": {"test": "Plasma glucose, triglyceride and total cholesterol of obese rats", "format": "in vivo, rat", "settings": "for plasma glucose concentration / plasma total cholesterol concentration / plasma triglyceride concentration: high-fat diet, single rats 1-6", "experimental": "On the 26th day of the experiment, 20 min after ip administration of heparin (5000 IU/rat) and thiopental (70 mg/kg b.w.), plasma was collected from the left carotid artery and then centrifuged at 600 × g (15 min, 4 °C) to obtain the plasma.\nTo determine the glucose, triglyceride, or cholesterol level in plasma, standard enzyme and spectrophotometric tests (Biomaxima S.A. Lublin, Poland) were used. The substrate was decomposed with enzymes appropriate for the relevant product, which was converted to a colored compound. The colouration was proportional to the concentration. The absorbance was measured at a wavelength of 500 nm."}, "[3]": {"test": "Spontaneous activity in the home cage (RFID, TraffiCage)", "format": "in vivo, rat", "settings": "for activity: hight-fat diet, 5mg/kg, after first administration, 5 mg/kg", "experimental": "Rat spontaneous activity was monitored for 24 h on the 1st and 24th (after multiple administrations of tested compound or vehicle) day of treatment with a radio-frequency identification system (RFID system)—TraffiCage (TSE-Systems, Germany)—transponder-based activity monitoring under group housing. The animals had subcutaneously implanted transponder identification with RFID code, which allowed the presence and time spent in different areas of the home cage to be recorded. The data were collected with a dedicated platform, placed under the home cage, containing five RFID antennas (six cage areas) reading telemetrically the presence of RFID chips and stored for analysis with a dedicated computer program. The animals during the monitoring of spontaneous activity were in home cages and always had free access to food and water."}, "[4]": {"settings": "5 mg/kg b.w., i.p.; cited from earlier work"}, "[5]": {"settings": "5 mg/kg b.w., i.p.; cited from earlier work", "remark": "listed apart in the source"}, "TAAR1 [6]": {"biological_target": "T1, TAAR1", "parameters": "method as in PMID 21525407", "settings": "summary table; cited from earlier work"}},
  "note": "Several values for one entry are separate records, joined by “and”; a condition that tells them apart may be missing. Equal entries are not always repeated. Where two headings read alike, the source gives them in different places.",
  "data": [
    {"smiles": "Cl.N=C(N)NN=Cc1c(Cl)cc(O)cc1Cl", "note": "[4-OH-Guanabenz, 2-[(2,6-Dichloro-4-hydroxyphenyl)methylene]hydrazinecarboximidamide Hydrochloride]", "values": [
      {"measurement": "Intrinsic activity at TAAR1 (in words)", "setting": "TAAR1 [1]", "value": "weak agonistic activity"},
      {"measurement": "EC50", "setting": "TAAR1 [1]; agonist, tested up to 10^–4 M, response at 10^–2 and 10^–1 M assumed 90–100% of tyramine, read-out: EC50 calculated after computer simulation", "value": 331, "unit": "µM"},
      {"measurement": "Average Value (raw signal)", "setting": "TAAR1 [1]; cAMP, Agonist, Conc(M) 1e-6", "value": 980.00},
      {"measurement": "Value 1 / Value 2 (raw signal)", "setting": "TAAR1 [1]; cAMP, Agonist, Conc(M) 1e-6", "value": "960 and 1000"},
      {"measurement": "Average Value (raw signal)", "setting": "TAAR1 [1]; cAMP, Agonist, Conc(M) 1e-5", "value": 1140.00},
      {"measurement": "Value 1 / Value 2 (raw signal)", "setting": "TAAR1 [1]; cAMP, Agonist, Conc(M) 1e-5", "value": "1080 and 1200"},
      {"measurement": "Average Value (raw signal)", "setting": "TAAR1 [1]; cAMP, Agonist, Conc(M) 0.0001", "value": 2200.00},
      {"measurement": "Value 1 / Value 2 (raw signal)", "setting": "TAAR1 [1]; cAMP, Agonist, Conc(M) 0.0001", "value": 2200},
      {"measurement": "% Efficacy (of the full agonist tyramine)", "setting": "TAAR1 [1]; cAMP, Agonist, Conc(M) 0.0001 (10^–4 M)", "value": 23.1, "unit": "%"},
      {"measurement": "Emax at 100 µM", "setting": "TAAR1 [1]; cAMP, Agonist, Conc(M) 0.0001 (10^–4 M), read-out: % Efficacy (of the full agonist tyramine)", "value": 23, "unit": "%"},
      {"measurement": "Intrinsic activity at TAAR1", "setting": "TAAR1 [1]; summary table", "value": "+"},
      {"measurement": "effect on plasma total cholesterol (in words)", "setting": "[2]; high-fat diet rats, 5 mg/kg b.w.", "value": "highest plasma level of total cholesterol"},
      {"measurement": "effect on plasma triglyceride level (in words)", "setting": "[2]; high-fat diet rats, 5 mg/kg b.w., vs obese control", "value": "significantly decreased plasma triglyceride levels"},
      {"measurement": "plasma glucose concentration", "setting": "[2]; 2mg/kg", "value": "4.77 mmol/L and 5.43 mmol/L and 6.06 mmol/L and 5.37 mmol/L and 5.51 mmol/L"},
      {"measurement": "plasma total cholesterol concentration", "setting": "[2]; 2mg/kg", "value": "0.86 mmol/L and 0.71 mmol/L and 0.87 mmol/L and 0.75 mmol/L and 0.78 mmol/L and 0.93 mmol/L"},
      {"measurement": "plasma triglyceride concentration", "setting": "[2]; 2mg/kg", "value": "0.17 mmol/L and 0.12 mmol/L and 0.21 mmol/L and 0.13 mmol/L and 0.14 mmol/L"},
      {"measurement": "plasma glucose concentration", "setting": "[2]; 5mg/kg", "value": "4.45 mmol/L and 5.37 mmol/L and 4.63 mmol/L and 5.39 mmol/L and 3.28 mmol/L and 4.68 mmol/L"},
      {"measurement": "plasma total cholesterol concentration", "setting": "[2]; 5mg/kg", "value": "0.93 mmol/L and 0.87 mmol/L and 0.8 mmol/L and 1.08 mmol/L and 0.88 mmol/L and 0.84 mmol/L"},
      {"measurement": "plasma triglyceride concentration", "setting": "[2]; 5mg/kg", "value": "0.12 mmol/L and 0.2 mmol/L and 0.1 mmol/L and 0.13 mmol/L and 0.18 mmol/L"},
      {"measurement": "effect on blood glucose level (in words)", "setting": "[2]; obese rats, both doses (2 or 5 mg/kg b.w.), vs obese animals treated with water", "value": "significantly lower blood glucose levels"},
      {"measurement": "activity", "setting": "[3]; hour 2, individual rats", "value": "241 counts and 466 counts and 407 counts and 76 counts and 54 counts"},
      {"measurement": "activity", "setting": "[3]; hour 3, individual rats", "value": "175 counts and 744 counts and 1081 counts and 269 counts and 412 counts"},
      {"measurement": "activity", "setting": "[3]; hour 4, individual rats", "value": "468 counts and 421 counts and 262 counts and 105 counts and 179 counts"},
      {"measurement": "activity", "setting": "[3]; hour 5, individual rats", "value": "721 counts and 62 counts and 232 counts and 2 counts and 78 counts"},
      {"measurement": "activity", "setting": "[3]; hour 6, individual rats", "value": "248 counts and 6* counts and 445 counts and 569 counts and 80 counts"},
      {"measurement": "activity", "setting": "[3]; hour 7, individual rats", "value": "1058 counts and 287 counts and 302 counts and 211 counts and 276 counts"},
      {"measurement": "activity", "setting": "[3]; hour 8, individual rats", "value": "513 counts and 751 counts and 432 counts (2×) and 306 counts"},
      {"measurement": "activity", "setting": "[3]; hour 9, individual rats", "value": "853 counts and 240 counts and 521 counts and 547 counts and 173 counts"},
      {"measurement": "activity", "setting": "[3]; hour 10, individual rats", "value": "276 counts and 938 counts and 536 counts and 556 counts and 142 counts"},
      {"measurement": "activity", "setting": "[3]; hour 11, individual rats", "value": "504 counts and 558 counts and 708 counts and 326 counts and 403 counts"},
      {"measurement": "activity", "setting": "[3]; hour 12, individual rats", "value": "347 counts and 440 counts and 410 counts and 404 counts and 692 counts"},
      {"measurement": "activity", "setting": "[3]; hour 13, individual rats", "value": "674 counts and 446 counts and 516 counts and 428 counts and 684 counts"},
      {"measurement": "activity", "setting": "[3]; hour 14, individual rats", "value": "437 counts and 1077* counts and 632 counts and 394 counts and 897 counts"},
      {"measurement": "activity", "setting": "[3]; hour 15, individual rats", "value": "692 counts and 273 counts and 929 counts and 462 counts and 743 counts"},
      {"measurement": "activity", "setting": "[3]; hour 16, individual rats", "value": "387 counts and 825 counts and 409 counts and 821 counts and 664 counts"},
      {"measurement": "activity", "setting": "[3]; hour 17, individual rats", "value": "618 counts and 1081 counts and 250 counts and 383 counts and 813 counts"},
      {"measurement": "activity", "setting": "[3]; hour 18, individual rats", "value": "339 counts and 628 counts and 260 counts and 133 counts and 576 counts"},
      {"measurement": "activity", "setting": "[3]; hour 19, individual rats", "value": "608 counts and 953 counts and 971 counts and 592 counts and 271 counts"},
      {"measurement": "activity", "setting": "[3]; hour 20, individual rats", "value": "298 counts and 398 counts and 614 counts and 684 counts and 663 counts"},
      {"measurement": "activity", "setting": "[3]; hour 21, individual rats", "value": "215 counts and 344 counts and 275 counts and 266 counts and 475 counts"},
      {"measurement": "effect on spontaneous activity (in words)", "setting": "[3]; obese rats, after the first and 24th administration, 5 mg/kg b.w.", "value": "no effect"}
    ]},
    {"smiles": "N=C(N)N/N=C/c1c(Cl)cccc1Cl", "note": "[Guanabenz]", "values": [
      {"measurement": "Plasma cholesterol level", "setting": "[4]", "value": "↑ [17]"},
      {"measurement": "Plasma glucose level", "setting": "[4]", "value": "↓ [17]"},
      {"measurement": "Plasma triglyceride level", "setting": "[4]", "value": "↓ [17]"},
      {"measurement": "Core temperature", "setting": "[5]", "value": "↓ [17]"},
      {"measurement": "Intrinsic activity at TAAR1", "setting": "TAAR1 [6]", "value": "Agonist [48]"}
    ]}
  ]
}
